Results on 49 compounds are retold here after patent US8741892B2, “Compounds” (Boehringer Ingelheim International GmbH, priority 2011, dated 2014).

By EC50 is commonly meant the concentration that produces a half-maximal response.

The assay deals with T1, human recombinant mGluR5 (Homo sapiens, UniProt P41594).
T1 construct: expressed in transfected cells; host or cells: HEK 293
The assay is described as follows: positive modulation of mGluR5, calcium based FLIPR assay. Conditions: HEK 293 cell line expressing human recombinant mGluR5; EC50 of the modulation from peak Ca fluorescence signal after glutamate at approx. 5% basal stimulation. Put shortly: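 HEK 293 cells expressing human recombinant mGluR5, Calcium-4 dye-loaded in Ringer solution pH 7.4. Compound (1% DMSO final) preincubated 5 min, then glutamate at ~5% of maximal effect added; peak Ca2+ fluorescence gives EC50 by nonlinear regression, normalized to DMSO (100%) and 10 μM CDPPB (200%) controls.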

T1 sequence (P41594 21-1212): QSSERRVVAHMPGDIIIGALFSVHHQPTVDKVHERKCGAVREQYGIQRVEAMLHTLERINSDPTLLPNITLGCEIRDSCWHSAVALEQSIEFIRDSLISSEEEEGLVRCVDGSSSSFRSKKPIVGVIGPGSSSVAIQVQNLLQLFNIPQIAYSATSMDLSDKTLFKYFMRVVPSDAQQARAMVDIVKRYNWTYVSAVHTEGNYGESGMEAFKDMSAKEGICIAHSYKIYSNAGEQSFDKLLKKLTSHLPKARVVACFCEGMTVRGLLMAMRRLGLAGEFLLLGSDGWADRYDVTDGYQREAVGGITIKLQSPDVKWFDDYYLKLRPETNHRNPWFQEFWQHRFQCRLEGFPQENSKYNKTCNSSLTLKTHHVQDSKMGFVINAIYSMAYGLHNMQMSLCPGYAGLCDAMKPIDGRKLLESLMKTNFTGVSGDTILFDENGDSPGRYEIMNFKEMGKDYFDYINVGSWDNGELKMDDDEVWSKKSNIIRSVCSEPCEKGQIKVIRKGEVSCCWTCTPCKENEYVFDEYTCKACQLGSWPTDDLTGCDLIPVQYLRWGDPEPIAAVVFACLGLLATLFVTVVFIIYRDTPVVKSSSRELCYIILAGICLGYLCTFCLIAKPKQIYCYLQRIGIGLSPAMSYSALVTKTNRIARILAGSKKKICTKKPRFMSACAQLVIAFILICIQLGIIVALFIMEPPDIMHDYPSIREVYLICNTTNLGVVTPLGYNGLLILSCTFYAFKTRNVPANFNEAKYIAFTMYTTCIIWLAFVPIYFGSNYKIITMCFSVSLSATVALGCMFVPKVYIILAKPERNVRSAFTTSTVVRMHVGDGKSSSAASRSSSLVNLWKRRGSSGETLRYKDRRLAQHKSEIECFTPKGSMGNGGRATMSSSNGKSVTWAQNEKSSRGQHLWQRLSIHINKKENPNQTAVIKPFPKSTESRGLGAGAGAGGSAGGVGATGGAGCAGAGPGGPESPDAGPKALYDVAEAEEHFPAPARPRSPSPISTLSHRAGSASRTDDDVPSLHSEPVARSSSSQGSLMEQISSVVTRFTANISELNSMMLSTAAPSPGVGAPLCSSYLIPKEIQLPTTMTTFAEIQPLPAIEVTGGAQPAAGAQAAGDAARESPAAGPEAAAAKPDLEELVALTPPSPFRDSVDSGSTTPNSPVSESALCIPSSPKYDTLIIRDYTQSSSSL

`Nc1nc2c(s1)CCN(C(=O)Cn1nc(-c3cccc(Cl)c3)cc1-c1ccccc1)CC2` [Example 7.02.138]: the EC50 came out at 44 nM.
As to `Cc1nnc(C2CCN(C(=O)Cn3nc(-c4cccc(Cl)c4)cc3-c3ccccc3)CC2)o1` [Example 7.02.139], the EC50 worked out at 101 nM.
As to `Cc1cnc(C2CCN(C(=O)Cn3nc(-c4ccc(F)c(C)c4)cc3-c3ccccc3)CC2)s1` [Example 7.02.140], the EC50 was 51 nM.
Turning to `CCc1cc(-c2ccc(F)c(C)c2)nn1CC(=O)N1CCC(c2ncc(C)s2)CC1` [Example 7.02.141], the concentration giving a half-maximal response (EC50) worked out at 138 nM.
As to `Cc1cnc(C2=CCN(C(=O)Cn3nc(-c4cccc(Cl)c4)cc3-c3ccccc3)CC2)o1` [Example 7.02.142], the EC50 stood at 27 nM.
For the compound `Cc1nc2c(s1)CN(C(=O)Cn1nc(-c3cccc(Cl)c3)cc1-c1ccccc1)C2` [Example 7.02.143], the EC50 was 48 nM.
In the case of `Cc1cnc(C2CCN(C(=O)Cn3nc(-c4cccc(Cl)c4)cc3-c3ccccc3)CC2)o1` [Example 7.02.144] it was 68 nM; in that of `Cc1nc2c(s1)CCN(C(=O)Cn1nc(-c3cccc(Cl)c3)cc1-c1ccccc1)CC2` [Example 7.02.145], 15 nM; in that of `COc1cccc(C2CCN(C(=O)Cn3nc(-c4ccc(F)c(C)c4)cc3-c3ccccc3)CC2)c1` [Example 7.02.146], 295 nM.
Consider `CCc1cc(-c2ccc(F)c(C)c2)nn1CC(=O)N1CCC(c2cccc(OC)c2)CC1` [Example 7.02.147], for which the EC50 came to 572 nM.
In the case of `COc1cc(-c2cc(-c3ccccc3)n(CC(=O)N3CCc4nc(C)sc4CC3)n2)ccc1F` [Example 7.02.148], the EC50 is 15 nM.
As for `COc1cc(-c2cc(-c3ccccc3)n(CC(=O)N3CCc4nc(N)sc4CC3)n2)ccc1F` [Example 7.02.149], the EC50 stood at 42 nM.
As for `COc1cc(-c2cc(-c3ccccc3)n(CC(=O)N3Cc4nc(C)sc4C3)n2)ccc1F` [Example 7.02.150], the concentration for a half-maximal effect (EC50) was 28 nM.
Turning to `COc1cc(-c2cc(-c3ccccc3)n(CC(=O)N3CCC(c4nnc(C)o4)CC3)n2)ccc1F` [Example 7.02.151], the EC50 amounted to 211 nM.
Consider `COc1cc(-c2cc(-c3ccccc3)n(CC(=O)N3CCC(c4ncc(C)o4)CC3)n2)ccc1F` [Example 7.02.152], for which the EC50 amounted to 67 nM.
In the case of `COc1cc(-c2cc(-c3ccccc3)n(CC(=O)N3CC=C(c4ncc(C)o4)CC3)n2)ccc1F` [Example 7.02.153] it was 15 nM; in that of `Cc1nc(N2CCN(C(=O)Cn3nc(-c4ccc(F)c(C)c4)cc3C)CC2)no1` [Example 7.02.154], 108 nM; in that of `Cc1nc2c(o1)CN(C(=O)Cn1nc(-c3ccc(F)c(C)c3)cc1C)C2` [Example 7.02.155], 92 nM.
With `Cc1cc(-c2cc(-c3ccccc3)n(CC(=O)N3CCc4nc(N)sc4CC3)n2)ncc1F` [Example 7.02.156], the EC50 turned out to be 170 nM.
Consider `CCc1cc(-c2ccc(F)c(C)c2)nn1CC(=O)N1CCC(c2nnc(C)o2)CC1` [Example 7.02.157], for which the EC50 was determined as 430 nM.
As for `Cc1csc(N2CCN(C(=O)Cn3nc(-c4ccc(F)c(C)c4)cc3-c3ccccc3)CC2)n1` [Example 7.02.158], the EC50 turned out to be 116 nM.
In the case of `Cc1csc(N2CCN(C(=O)Cn3nc(-c4ccc(F)c(C)c4)cc3-c3ccccc3)CC2)n1` [Example 7.02.159] it was 44 nM; in that of `CCc1nnc(N2CCN(C(=O)Cn3nc(-c4ccc(F)c(C)c4)cc3-c3ccccc3)CC2)o1` [Example 7.02.160], 23 nM; in that of `COc1nc2c(s1)CCN(C(=O)Cn1nc(-c3ccc(F)c(C)c3)cc1-c1ccccc1)CC2` [Example 7.02.161], 35 nM.
With `CCc1cc(-c2ccc(F)c(C)c2)nn1CC(=O)N1CCN(c2nnc(C(F)(F)F)s2)CC1` [Example 7.02.162], the EC50 was determined as 120 nM.
Consider `CCc1nnc(N2CCN(C(=O)Cn3nc(-c4ccc(F)c(C)c4)cc3CC)CC2)o1` [Example 7.02.163], for which the EC50 came to 122 nM.
On to `CCc1cc(-c2ccc(F)c(C)c2)nn1CC(=O)N1CCc2nc(OC)sc2CC1` [Example 7.02.164], for which the EC50 was determined as 46 nM.
As to `Cc1coc(N2CCN(C(=O)Cn3nc(-c4ccc(F)c(C)c4)cc3-c3ccccc3)CC2)n1` [Example 7.02.165], the EC50 turned out to be 18 nM.
As to `CCCc1cc(-c2ccc(F)c(C)c2)nn1CC(=O)N1CCN(c2nc(C)co2)CC1` [Example 7.02.166], the EC50 worked out at 149 nM.
As to `CCc1cc(-c2ccc(F)c(C)c2)nn1CC(=O)N1CCN(c2nc(C)co2)CC1` [Example 7.02.167], the EC50 stood at 370 nM.
On to `Cc1coc(N2CCN(C(=O)Cn3nc(-c4ccc(F)c(C)c4)cc3C)CC2)n1` [Example 7.02.168], for which the EC50 is 604 nM.
As to `Cc1noc(N2CCN(C(=O)Cn3nc(-c4ccc(F)c(C)c4)cc3-c3ccccc3)CC2)n1` [Example 7.02.169], the EC50 is 20 nM.
With `Cc1nc2c(s1)CCN(C(=O)Cn1nc(-c3ccc(F)c(C)n3)cc1-c1ccccc1)CC2` [Example 7.02.170] the figure was 30 nM; with `Cc1nc(-c2cc(-c3ccccc3)n(CC(=O)N3CCc4nc(N)sc4CC3)n2)ccc1F` [Example 7.02.171], 68 nM.
With `Cc1nc2c(s1)CN(C(=O)Cn1nc(-c3ccc(F)c(C)n3)cc1-c1ccccc1)C2` [Example 7.02.172] the figure was 64 nM; with `Cc1nc2c(o1)CN(C(=O)Cn1nc(-c3ccc(F)c(C)n3)cc1-c1ccccc1)C2` [Example 7.02.173], 38 nM.
Consider `Cc1nc(N2CCN(C(=O)Cn3nc(-c4ccc(F)c(C)n4)cc3-c3ccccc3)CC2)no1` [Example 7.02.174], for which the EC50 amounted to 39 nM.
For `Cc1nc2c(s1)CCN(C(=O)Cn1nc(-c3cc(C)c(F)cn3)cc1-c1ccccc1)CC2` [Example 7.02.175], the EC50 was determined as 59 nM.
`Cc1nc2c(s1)CN(C(=O)Cn1nc(-c3cc(C)c(F)cn3)cc1-c1ccccc1)C2` [Example 7.02.176]: the half-maximal effective concentration (EC50) is 221 nM.
In the case of `Cc1nc2c(o1)CN(C(=O)Cn1nc(-c3cc(C)c(F)cn3)cc1-c1ccccc1)C2` [Example 7.02.177], the EC50 came to 111 nM.
For the compound `Cc1nc(N2CCN(C(=O)Cn3nc(-c4cc(C)c(F)cn4)cc3-c3ccccc3)CC2)no1` [Example 7.02.178], the EC50 was determined as 69 nM.
On to `Cc1nnc(N2CCN(C(=O)Cn3nc(-c4ccc(F)c(C)n4)cc3-c3ccccc3)CC2)o1` [Example 7.02.179], for which the EC50 was found to be 236 nM.
In the case of `Cc1nnc(N2CCN(C(=O)Cn3nc(-c4cc(C)c(F)cn4)cc3-c3ccccc3)CC2)o1` [Example 7.02.180] it was 1070 nM; in that of `CCc1cc(-c2cc(C)c(F)c(C)c2)nn1CC(=O)N1Cc2nc(C)sc2C1` [Example 7.02.181], 398 nM; in that of `CCc1cc(-c2cccc(C#N)c2)nn1CC(=O)N1CC=C(c2ncc(C)o2)CC1` [Example 7.02.182], 65 nM.
`CCc1cc(-c2cccc(C#N)c2)nn1CC(=O)N1CCC(c2ncc(C)o2)CC1` [Example 7.02.183]: the EC50 stood at 330 nM.
As to `CCc1cc(-c2cccc(C#N)c2)nn1CC(=O)N1CCc2nc(C)sc2CC1` [Example 7.02.184], the EC50 came to 132 nM.
As for `CCc1cc(-c2cccc(C#N)c2)nn1CC(=O)N1CCc2nc(N)sc2CC1` [Example 7.02.185], the EC50 was 258 nM.
With `CCc1cc(-c2cccc(C#N)c2)nn1CC(=O)N1Cc2nc(C)sc2C1` [Example 7.02.186] the figure was 326 nM.
